# ChEMBL document CHEMBL4043145, “Pyridine-pyrimidine amides that prevent HGF-induced epithelial scattering by two distinct mechanisms” (Bioorg Med Chem Lett, 2017)
# Experiments:
# [1] = (§1) Inhibition of bovine brain tubulin polymerization; design: species or system Bos taurus
# Bos taurus = species on record: Bos taurus; test: as §1
# MDCK-II [2] = test: Antimigratory activity against MDCK2 cells assessed as inhibition of HGF-induced cell scattering at 1 uM pretreated for 18 hrs followed by HGF addition measured after 20 to 24 hrs by crystal violet staining-based assay relative to control; type: functional; conditions: Canis lupus familiaris
# [3] = Antimigratory activity against human SW.71 cells at 10 uM after 18 hrs by crystal violet staining-based assay relative to control; type: functional; conditions: SW.71, 18 h
# CCRF-CEM = test: Antiproliferative activity against human CCRF-CEM cells; type: functional
# PC-3 = test: Antiproliferative activity against human PC3 cells; type: functional
# MCF7 [4] = test: Antiproliferative activity against human MCF7 cells at 10 uM relative to control; type: functional, cell-based
# SN12C = test: Antiproliferative activity against human SN12C cells; type: functional
# MFE-280 = test: Antiproliferative activity against human MFE280 cells; type: functional
# CAKI-1 = test: Antiproliferative activity against human Caki1 cells; type: functional
# MCF7 [5] = test: Antiproliferative activity against human MCF7 cells; type: functional
# BT-20 = test: Antiproliferative activity against human BT20 cells; type: functional
# MDA-MB-435 = test: Antiproliferative activity against human MDA-MB-435 cells; type: functional
# NCI/ADR-RES = test: Antiproliferative activity against human NCI/ADR-RES cells; type: functional
# ACHN = test: Antiproliferative activity against human ACHN cells; type: functional
# Hs-578T = test: Antiproliferative activity against human Hs 578T cells; type: functional
# VCaP = test: Antiproliferative activity against human VCaP cells; type: functional
# UO-31 = test: Antiproliferative activity against human UO31 cells; type: functional
# A549 [6] = test: Antiproliferative activity against human A549 cells; type: functional
# SW480 = test: Antiproliferative activity against human SW480 cells; type: functional
# SK-OV-3 = test: Antiproliferative activity against human SKOV3 cells; type: functional
# SK-MEL-2 = test: Antiproliferative activity against human SK-MEL-2 cells; type: functional
# Malme-3M = test: Antiproliferative activity against human MALME-3M cells; type: functional
# NCI-H522 = test: Antiproliferative activity against human NCI-H522 cells; type: functional
# CWR22R = test: Antiproliferative activity against human 22Rv1 cells; type: functional
# HCT-116 = test: Antiproliferative activity against human HCT116 cells; type: functional
# KM12 = test: Antiproliferative activity against human KM12 cells; type: functional
# OVCAR-4 = test: Antiproliferative activity against human OVCAR4 cells; type: functional
# COLO 205 = test: Antiproliferative activity against human COLO205 cells; type: functional
# SW-620 = test: Antiproliferative activity against human SW620 cells; type: functional
# NCI-H322M = test: Antiproliferative activity against human NCI-H322M cells; type: functional
# AN3-CA = test: Antiproliferative activity against human AN3CA cells; type: functional
# HOP-62 = test: Antiproliferative activity against human HOP62cells; type: functional
# A549 [7] = test: Antiproliferative activity against human A549/ATCC cells; type: functional
# OVCAR-5 = test: Antiproliferative activity against human OVCAR5 cells; type: functional
# M14 = test: Antiproliferative activity against human M14 cells; type: functional
# SR = test: Antiproliferative activity against human SR cells; type: functional
# SF-268 = test: Antiproliferative activity against human SF268 cells; type: functional
# MOLT-4 = test: Antiproliferative activity against human MOLT4 cells; type: functional
# SF-295 = test: Antiproliferative activity against human SF295 cells; type: functional
# TK-10 = test: Antiproliferative activity against human TK10 cells; type: functional
# NCI-H23 = test: Antiproliferative activity against human NCI-H23 cells; type: functional
# RXF 393 = test: Antiproliferative activity against human RXF393 cells; type: functional
# SK-MEL-5 = test: Antiproliferative activity against human SK-MEL-5 cells; type: functional
# SNB-19 = test: Antiproliferative activity against human SNB19 cells; type: functional
# HOP-92 = test: Antiproliferative activity against human HOP92 cells; type: functional
# T47D = test: Antiproliferative activity against human T47D cells; type: functional
# PANC-1 = test: Antiproliferative activity against human PANC1 cells; type: functional
# SK-UT-1 = test: Antiproliferative activity against human SK-UT-1 cells; type: functional
# HPAC = test: Antiproliferative activity against HPAC; type: functional; conditions: Homo sapiens
# U-87 MG = test: Antiproliferative activity against human U87MG cells; type: functional, U-87MG ATCC
# LNCaP = test: Antiproliferative activity against human LNCAP cells; type: functional
# DU-145 = test: Antiproliferative activity against human DU145 cells; type: functional
# HT-29 = test: Antiproliferative activity against human HT-29 cells; type: functional
# MFE-296 = test: Antiproliferative activity against human MFE296 cells; type: functional
# HL-60(TB) = test: Antiproliferative activity against human HL-60(TB) cells; type: functional
# NCI-H1975 = test: Antiproliferative activity against human NCI-H1975 cells; type: functional
# HepG2 = test: Antiproliferative activity against human HepG2 cells; type: functional
# A2780 = test: Antiproliferative activity against human A2780 cells; type: functional, cell-based
# RL95-2 = test: Antiproliferative activity against human RL95-2 cells; type: functional
# [8] = Antiproliferative activity against human NCI-H660 cells; type: functional
# UACC-62 = test: Antiproliferative activity against human UACC62 cells; type: functional
# MIA PaCa-2 = test: Antiproliferative activity against human MIAPaCa2 cells; type: functional
# IGROV-1 = test: Antiproliferative activity against human IGROV1 cells; type: functional
# MDA-MB-468 [9] = test: Antiproliferative activity against human MDA-MB-468 cells; type: functional
# U-251 = test: Antiproliferative activity against human U251 cells; type: functional
# K562 = test: Antiproliferative activity against human K562 cells; type: functional
# [10] = Antiproliferative activity against human HER218 cells; type: functional
# HEC-1-A = test: Antiproliferative activity against human Hec1A cells; type: functional
# MDA-MB-231 = test: Antiproliferative activity against human MDA-MB-231/ATCC cells; type: functional
# OVCAR-3 = test: Antiproliferative activity against human OVCAR3 cells; type: functional
# NCI-H226 = test: Antiproliferative activity against human NCI-H226 cells; type: functional
# SF-539 = test: Antiproliferative activity against human SF539 cells; type: functional
# HCT-15 = test: Antiproliferative activity against human HCT15 cells; type: functional
# A498 = test: Antiproliferative activity against human A498 cells; type: functional
# RPMI-8226 = test: Antiproliferative activity against human RPMI8226 cells; type: functional
# LOX IMVI = test: Antiproliferative activity against human LOXIMVI cells; type: functional
# T98G = test: Antiproliferative activity against human T98G cells; type: functional
# NCI-H460 = test: Antiproliferative activity against human NCI-H460 cells; type: functional
# OVCAR-8 = test: Antiproliferative activity against human OVCAR8 cells; type: functional
# HCC 2998 = test: Antiproliferative activity against human HCC2998 cells; type: functional
# 786-0 = test: Antiproliferative activity against human 786-0 cells; type: functional
# MDA-MB-468 [11] = test: Antiproliferative activity against human MDA-MB-468 cells at 10 uM relative to control; type: functional
# MDCK-II [12] = test: Antimigratory activity against MDCK2 cells assessed as inhibition of HGF-induced cell scattering pretreated for 18 hrs followed by HGF addition measured after 20 to 24 hrs by crystal violet staining-based assay; type: functional; conditions: Canis lupus familiaris
structure (smiles),measurement,setting,value
O=C(Nc1ccc(-c2cccc(C3CC3)c2)cn1)c1cncnc1,IC50,[1],1030 nM
same,inhibition,Bos taurus,Dose-dependent effect
Cc1nc(NC(=O)c2cncnc2)ccc1I,inhibition at 1 µM,MDCK-II [2],249%
same,inhibition at 10 µM,[3],80%
O=C(Nc1ccc(-c2ccccc2)cn1)c1cncnc1,GI50,CCRF-CEM,199 nM
same,GI50,PC-3,118 nM
same,EC50,MCF7 [4],74 nM
same,GI50,SN12C,155 nM
same,GI50,MFE-280,> 10000 nM
same,GI50,CAKI-1,91 nM
same,GI50,MCF7 [5],37 nM
same,GI50,BT-20,342 nM
same,GI50,MDA-MB-435,22 nM
same,GI50,NCI/ADR-RES,40 nM
same,GI50,ACHN,271 nM
same,GI50,Hs-578T,160 nM
same,GI50,VCaP,246 nM
same,GI50,UO-31,2110 nM
same,GI50,A549 [6],204 nM
same,GI50,SW480,46 nM
same,GI50,SK-OV-3,315 nM
same,GI50,SK-MEL-2,53 nM
same,GI50,Malme-3M,77 nM
same,GI50,NCI-H522,34 nM
same,GI50,CWR22R,150 nM
same,GI50,HCT-116,40 nM
same,GI50,KM12,39 nM
same,GI50,OVCAR-4,> 10000 nM
same,GI50,COLO 205,47 nM
same,GI50,SW-620,43 nM
same,GI50,NCI-H322M,512 nM
same,GI50,AN3-CA,53 nM
same,GI50,HOP-62,> 10000 nM
same,GI50,A549 [7],61 nM
same,GI50,OVCAR-5,605 nM
same,GI50,M14,44 nM
same,GI50,SR,42 nM
same,GI50,SF-268,1020 nM
same,GI50,MOLT-4,297 nM
same,GI50,SF-295,86 nM
same,GI50,TK-10,317 nM
same,GI50,NCI-H23,660 nM
same,GI50,RXF 393,124 nM
same,GI50,SK-MEL-5,43 nM
same,GI50,SNB-19,370 nM
same,GI50,HOP-92,96 nM
same,GI50,T47D,> 10000 nM
same,GI50,PANC-1,212 nM
same,inhibition at 1 µM,MDCK-II [2],238%
same,GI50,SK-UT-1,55 nM
same,GI50,HPAC,154 nM
same,GI50,U-87 MG,260 nM
same,GI50,LNCaP,361 nM
same,GI50,DU-145,305 nM
same,GI50,HT-29,38 nM
same,GI50,MFE-296,26 nM
same,GI50,HL-60(TB),53 nM
same,GI50,NCI-H1975,271 nM
same,GI50,HepG2,94 nM
same,EC50,A2780,74 nM
same,GI50,A2780,40 nM
same,GI50,RL95-2,86 nM
same,GI50,[8],135 nM
same,GI50,UACC-62,69 nM
same,GI50,MIA PaCa-2,194 nM
same,GI50,IGROV-1,869 nM
same,GI50,MDA-MB-468 [9],29 nM
same,GI50,U-251,113 nM
same,GI50,K562,46 nM
same,GI50,[10],72 nM
same,GI50,HEC-1-A,178 nM
same,GI50,MDA-MB-231,256 nM
same,GI50,OVCAR-3,47 nM
same,GI50,NCI-H226,613 nM
same,GI50,SF-539,110 nM
same,GI50,HCT-15,45 nM
same,GI50,A498,48 nM
same,GI50,RPMI-8226,91 nM
same,GI50,LOX IMVI,121 nM
same,GI50,T98G,153 nM
same,GI50,NCI-H460,41 nM
same,GI50,OVCAR-8,240 nM
same,GI50,HCC 2998,1010 nM
same,GI50,786-0,591 nM
Cc1nc(NC(=O)c2cccc([N+](=O)[O-])c2)ccc1I,inhibition at 10 µM,MCF7 [4],84%
same,inhibition at 10 µM,MDA-MB-468 [11],73%
same,EC50,MDCK-II [12],3000 nM
same,inhibition at 1 µM,MDCK-II [2],71 to 95.9%
Cc1ncc(C(=O)Nc2ccc(-c3cccc(C4CC4)c3)cn2)cn1,IC50,[1],885 nM
same,inhibition,Bos taurus,Dose-dependent effect
